Assay type in all cases: cell-based
The subject of assay [1] is Colo205-LUC-TCF/LEF reporter gene. In words: Colo205-LUC-TCF/LEF M1 reporter cell line luciferase inhibition. Particulars: 4 h, 4 hours incubation, firefly luciferase signal. Here is the method: Colo205 cell line (Cell Bank of Chinese Academy of Sciences, Cat #TCHul02) was purchased from the Cell Bank of Chinese Academy of Sciences. After expansion and subculture, during the exponential growth phase, luciferase reporter plasmid (Promega) driven by TCF/LEF transcription factor was transfected by lipo3000 liposome transfection. The plasmid carries a resistance gene for resistance screening. Transfection was carried out in 10 cm culture dishes using conventional complete medium without resistance. After 2 days, the medium with resistance was replaced, and the culture was continued. After that, the medium with resistance was replaced every 2 days, and the suspended cells were discarded. The original medium was centrifuged to remove cells and debris and retained as an adaptive medium. When the cells covered the culture dish, the cells were digested, counted, and passaged in a 96-well plate, so that the average number of cells contained in each well was 1.5/well, and the adaptive medium was used for passage. The rest of the cells were frozen. After passage, culture for 4 hours to allow the cells to adhere to the wall, and then observe the number of cells in each well under a microscope. Wells with only 1 cell per well were labeled as monoclonal wells. Afterwards, normal culture was performed, and the culture medium was replaced every 2 days, and observed. There are wells where the monoclonal cells continue to grow in the early stage, and they are labeled twice, and can be replaced with normal medium with resistance. When a monoclonal well was overgrown with a 96-well plate, it is digested and passaged to a 24-well culture plate. After the 24-well plate is overgrown, it is passaged to a 96-well plate and a 6-well plate. The cells in a 96-well plate are at least 6 wells, of which 3 wells were added with known Wnt inhibitors, and the other 3 wells were not treated. After 24 hours, the cells in the 96-well plate were added with a fluorescence detection reagent to detect the fluorescence intensity. Cell lines with fluorescent expression when not treated and decreased fluorescent light after inhibition were selected and further cultured. The Colo205-LUC-TCF/LEF-M1 cell line is one of the cell lines screened above. Its growth curve, cell shape, and cell growth state are similar to those of the original Colo205 cells, and the ratio of the fluorescent signals of the inhibitor-treated and untreated cells is the largest among all cell lines, and the ratio can reach 4-5 times when inhibited at 4 hours, which was completely suitable for the screening of Wnt inhibitors in the later stage.
The Colo205-LUC-TCF/LEF M1 cell line is a reporter tool cell stably transfected with the pGL4.49-LUC2-TCF/LEF vector. The β-catenin Wnt pathway is continuously activated. After adding the inhibitor, the Wnt pathway is inhibited. The expression of firefly luciferase regulated by the TCF/LEF cis-element decreased, and after adding the detection substrate, the detected light signal decreased accordingly, so as to detect the inhibitory effect of the compound.
To a 96-well cell culture plate, add 100 uL of the compound with a maximum concentration of 20 uM to each well, and make a 3-fold serial dilution of the compound concentration. Then 10,000 colo205 cells stably transfected with the reporter gene and 100 uL medium were inoculated into each well, and corresponding positive and negative control wells were made at the same time. Put the cells in a 5% CO2 incubator and incubate at 37° C. for 4 hours. After 4 hours, remove the culture medium, add 100 μL of reagent (Promega) containing the corresponding firefly luciferase substrate to each well, and measure the activity of luciferase reporter gene. Luminescence intensity was read with SpectraMax in full wavelength mode. […]

The subject of another assay is Colo205. The experiment in a line: Proliferation inhibition test, Wnt mutant cell line Colo205. The settings on record: Colo205, 96 h culture with compound, read-out: Antiproliferation IC50 Colo205. The source says: (§1) The cell lines used in the experiment are Colo205, H929, HepG2, and DU4475, which have sustained activation of the Wnt pathway and whose proliferation is Wnt pathway-dependent. On the other hand, RKO cell line, in which normally the Wnt pathway is not activated and whose proliferation is not Wnt pathway-dependent, was used as a control cell line. This was done to determine whether the inhibitory effect of the compound of the present disclosure on Wnt-dependent proliferation is due to other nonspecific toxicity.
(§2) Colo205, H929, DU4475, HepG2 and RKO cell lines cultured in their respective culture media were treated in the logarithmic growth phase, and the cells were collected and prepared into a uniform cell suspension of known concentration, and then added to a 96-well cell culture plate so that each well contained 1000-4000 cells. Place in a 5% CO2 cell culture incubator and culture at 37° C. for 20-24 h. On the second day, add the completely dissolved, 3-fold gradient dilution compound to each cell culture well to make the final maximum concentration in the cell culture well 10 uM, and continue to culture for 96 h. This test uses Promega's cell activity detection test for detection. The more the cells proliferate, the stronger the final signal intensity. The detection instrument is SpectraMax, full wavelength mode. The wells with only DMSO added were used as positive control wells, and the wells without cells inoculated were used as negative control wells.

In another assay the test system is DU4475. The experiment in a line: Proliferation inhibition test, Wnt mutant cell line DU4475. The settings on record: DU4475, 96 h culture with compound, read-out: Antiproliferation IC50 DU4475.
Excerpt: as §1, §2

A further assay deals with HepG2. In words: Proliferation inhibition test, Wnt mutant cell line HepG2. The settings on record: HepG2, 96 h culture with compound, read-out: Antiproliferation IC50 HepG2.
Excerpt: as §1, §2

Another assay has as its system H929. In words: Proliferation inhibition test, Wnt mutant cell line H929. The settings on record: H929, 96 h culture with compound, read-out: Antiproliferation IC50 H929.
Excerpt: as §1, §2

Another assay has as its system RKO. The experiment in a line: Proliferation inhibition test, non-Wnt mutant control cell line RKO. The settings on record: RKO (Wnt pathway not activated, control), 96 h culture, maximum concentration 10 uM, read-out: Antiproliferation IC50 RKO.
Excerpt: as §1, §2

Where two headings read alike, the source gives them in different places.

`[2H]C([2H])([2H])N1c2nc(NCc3ccc(Oc4cnc(C(F)(F)F)nc4C4CC4)nc3)nc3c2N(CCC3)C(=O)[C@@H]1CO` [Compound 9, (S)-2-(((6-((4-cyclopropyl-2-(trifluoromethyl)pyrimidin-5-yl)oxy)pyridin-3-yl)methyl)amino)-5-(hydroxymethyl)-4-(methyl-d3)-4,5,9,10-tetrahydro-6H,8H-pyrido[3,2,1-de]pteridin-6-one]: the IC50 is 0.0138 µM in assay [1]; 0.00843 µM in the assay with Colo205 (Homo sapiens, COLO 205, 96 h); 0.00046 µM in the assay with DU4475 (Homo sapiens, DU-4475, 96 h); 0.0113 µM in the assay on HepG2 (Homo sapiens, HepG2, 96 h); 0.0364 µM in the assay with H929 (Homo sapiens, NCI-H929, 96 h); more than 10 µM in the assay with RKO (Homo sapiens).

For `[2H]C([2H])([2H])N1c2nc(NCc3ccc(Oc4cnc(C(F)(F)F)nc4C4CC4)nc3)nc3c2N(CCC3)C(=O)[C@]1(C)CO` [Compound 10, (S)-2-(((6-((4-cyclopropyl-2-(trifluoromethyl)pyrimidin-5-yl)oxy)pyridin-3-yl)methyl)amino)-5-(hydroxymethyl)-5-methyl-4-(methyl-d3)-4,5,9,10-tetrahydro-6H,8H-pyrido[3,2,1-de]pteridin-6-one], the IC50 in assay [1] is 0.00389 µM; in the assay on Colo205 (Homo sapiens, COLO 205, 96 h) it was 0.00234 µM; in the assay on DU4475 (Homo sapiens, DU-4475, 96 h), less than 0.0005 µM; with HepG2 (Homo sapiens, HepG2, 96 h) it was 0.00354 µM; with H929 (Homo sapiens, NCI-H929, 96 h), 0.018 µM; in the assay on RKO (Homo sapiens), more than 10 µM.

Consider `[2H]C([2H])([2H])N1c2nc(NCc3ccc(Oc4ccc(C(F)(F)F)nc4Br)nc3)nc3c2N(CCC3)C(=O)[C@]1(C)CO` [Compound 12, (S)-2-(((6-((2-bromo-6-(trifluoromethyl)pyridin-3-yl)oxy)pyridin-3-yl)methyl)amino)-5-(hydroxymethyl)-5-methyl-4-(methyl-d3)-4,5,9,10-tetrahydro-6H,8H-pyrid o[3,2,1-de]pteridin-6-one], for which the IC50 was 0.00909 µM in assay [1]; 0.00652 µM with Colo205 (Homo sapiens, COLO 205, 96 h); 0.00082 µM in the assay with DU4475 (Homo sapiens, DU-4475, 96 h); 0.0121 µM with HepG2 (Homo sapiens, HepG2, 96 h); 0.0313 µM in the assay with H929 (Homo sapiens, NCI-H929, 96 h); more than 10 µM with RKO (Homo sapiens).

For the compound `CN1c2nc(NCc3ccc(Oc4ccc(C(F)(F)F)nc4N4CCCC4)nc3)nc3c2N(CCC3)C(=O)[C@]1(C)CO` [Compound 13, (S)-5-(Hydroxymethyl)-4,5-dimethyl-2-(((6-((2-(pyrrolidin-1-yl)-6-(trifluoromethyl)pyridin-3-yl)oxy)pyridin-3-yl)methyl)amino)-4,5,9,10-tetrahydro-6H,8H-pyrido[3,2,1-de]pteridin-6-one], the IC50 was 0.00686 µM in assay [1]; 0.0115 µM in the assay with Colo205 (Homo sapiens, COLO 205, 96 h); 0.00158 µM in the assay with DU4475 (Homo sapiens, DU-4475, 96 h); 0.0191 µM in the assay with HepG2 (Homo sapiens, HepG2, 96 h); 0.054 µM in the assay with H929 (Homo sapiens, NCI-H929, 96 h); more than 10 µM in the assay on RKO (Homo sapiens).

As for `CNc1nc(C(F)(F)F)ccc1Oc1ccc(CNc2nc3c4c(n2)N(C)[C@@](C)(CO)C(=O)N4CCC3)cn1` [Compound 16, (S)-5-(Hydroxymethyl)-4,5-dimethyl-2-(((6-((2-(methylamino)-6-(trifluoromethyl)pyridin-3-yl)oxy)pyridin-3-yl)methyl)amino)-4,5,9,10-tetrahydro-6H,8H-pyrido[3,2,1-de]pteridin-6-one], the IC50 in assay [1] was 0.0215 µM; in the assay on Colo205 (Homo sapiens, COLO 205, 96 h), less than 0.0001 µM; in the assay on DU4475 (Homo sapiens, DU-4475, 96 h), 0.0012 µM; with HepG2 (Homo sapiens, HepG2, 96 h) it was 0.00113 µM; in the assay with H929 (Homo sapiens, NCI-H929, 96 h), 0.103 µM; in the assay with RKO (Homo sapiens), more than 10 µM.

With `CN1c2nc(NCc3ccc(Oc4ccc(C(F)(F)F)nc4CC#N)nc3)nc3c2N(CCC3)C(=O)[C@@H]1CO` [Compound 17, (S)-2-(3-((5-(((5-(Hydroxymethyl)-4-methyl-6-carbonyl-5,6,9,10-tetrahydro-4H,8H-pyrido[3,2,1-de]pteridin-2-yl)amino)methyl)pyridin-2-yl)oxy)-6-(trifluoromethyl)pyridin-2-yl)acetonitrile], the IC50 in assay [1] was 0.264 µM; in the assay on Colo205 (Homo sapiens, COLO 205, 96 h) it was 0.179 µM; with DU4475 (Homo sapiens, DU-4475, 96 h), 0.0429 µM; with HepG2 (Homo sapiens, HepG2, 96 h), 0.879 µM; in the assay on H929 (Homo sapiens, NCI-H929, 96 h), 0.599 µM; in the assay on RKO (Homo sapiens), more than 10 µM.

Regarding `[2H]C([2H])([2H])N1c2nc(NCc3ccc(Oc4ccc(C(F)(F)F)nc4F)nc3)nc3c2N(CCC3)C(=O)[C@]1(C)CO` [Compound 18, (S)-2-(((6-((2-fluoro-6-(trifluoromethyl)pyridin-3-yl)oxy)pyridin-3-yl)methyl)amino)-5-(hydroxymethyl)-5-methyl-4-(methyl-d3)-4,5,9,10-tetrahydro-6H,8H-pyrido[3,2,1-de]pteridin-6-one], the IC50 in assay [1] was 0.0299 µM; with Colo205 (Homo sapiens, COLO 205, 96 h), 0.00743 µM; in the assay on DU4475 (Homo sapiens, DU-4475, 96 h), 0.00672 µM; in the assay on HepG2 (Homo sapiens, HepG2, 96 h) it was 0.0221 µM; in the assay with H929 (Homo sapiens, NCI-H929, 96 h) it was 0.0788 µM; in the assay with RKO (Homo sapiens), more than 10 µM.

Turning to `Cc1nc(C(F)(F)F)ncc1Oc1ccc(CNc2nc3c4c(n2)N(C)[C@@](C)(CO)C(=O)N4CCC3)cn1` [Compound 19], the IC50 in assay [1] is 0.0348 µM; with Colo205 (Homo sapiens, COLO 205, 96 h), 0.0266 µM; with DU4475 (Homo sapiens, DU-4475, 96 h), 0.0148 µM; with HepG2 (Homo sapiens, HepG2, 96 h), 0.0312 µM; in the assay on H929 (Homo sapiens, NCI-H929, 96 h) it was 0.0583 µM; in the assay on RKO (Homo sapiens) it was more than 10 µM.

As to `CN(c1nc(C(F)(F)F)ccc1Oc1ccc(CNc2nc3c4c(n2)N(C)[C@@](C)(CO)C(=O)N4CCC3)cn1)C1CC1` [Compound 20], the IC50 in assay [1] is 0.00146 µM; in the assay with Colo205 (Homo sapiens, COLO 205, 96 h), less than 0.0001 µM; in the assay with DU4475 (Homo sapiens, DU-4475, 96 h) it was less than 0.0001 µM; in the assay on HepG2 (Homo sapiens, HepG2, 96 h), 0.00322 µM; with H929 (Homo sapiens, NCI-H929, 96 h), 0.052 µM; with RKO (Homo sapiens), more than 10 µM.

In the case of `CN1c2nc(NCc3ccc(Oc4ccc(C(F)(F)F)nc4N4CC(F)(F)C4)nc3)nc3c2N(CCC3)C(=O)[C@]1(C)CO` [Compound 21], the IC50 in assay [1] is 0.00494 µM; with Colo205 (Homo sapiens, COLO 205, 96 h), less than 0.0001 µM; in the assay on DU4475 (Homo sapiens, DU-4475, 96 h), 0.00483 µM; in the assay with HepG2 (Homo sapiens, HepG2, 96 h) it was 0.00152 µM; in the assay with H929 (Homo sapiens, NCI-H929, 96 h) it was 0.255 µM; with RKO (Homo sapiens), more than 10 µM.

On to `Cc1nc(C(F)(F)F)ncc1Oc1ccc(CNc2nc3c4c(n2)N(C)[C@@](C)([C@H](C)O)C(=O)N4CCC3)cn1` [Compound 22], for which the IC50 in assay [1] was 0.09 µM; in the assay with Colo205, 0.0643 µM; in the assay on DU4475, 0.0386 µM; in the assay with HepG2, 0.224 µM; in the assay on H929 it was 0.309 µM; in the assay on RKO it was more than 10 µM.
